Laboratory results as given in paper PMC8113459, “Selective inhibition of cullin 3 neddylation through covalent targeting DCN1 protects mice from acetaminophen-induced liver toxicity” (Nature Communications, 2021).

Assays:
[1] = biological target: T1, cellular DCN1 protein in U2OS cells (Homo sapiens, UniProt Q96GG9); assay: Cellular thermal shift assay (CETSA), DCN1; format: cell-based; conditions: 1 h, 53 °C
T1 construct: endogenous in cells; host or cells: U2OS
Procedure: CETSA was performed as previously described. The U2OS cells (5 × 10^5 per sample) were treated with compounds or with DMSO for 1 h, washed with PBS for three times, and dissolved in 50 µL PBS supplemented with protease inhibitor, followed by heating at 53 °C in a Mastercycler gradient (Eppendorf, New York, USA). Treated cells were then subjected to snap-freezing in liquid nitrogen and thawed on ice for three cycles. The protein level of DCN1 and DCN3 in equal amount of the supernatant was examined by western blot methods. GAPDH was used as a control. Results are representative of three independent experiments.

four cancer cell lines = assay: Cell viability assay (WST-8), four cancer cell lines; format: cell-based, human; conditions: concentrations up to 1000 nM, 72 h
Procedure: Cell viability assay was performed as previously described. The effect of DCN1 inhibitors on cell growth was evaluated by a WST-8 [2-(2-methoxy-4-nitrophenyl)-3-(4-nitrophenyl)-5-(2,4-disulfophenyl)-2H-tetrazolium, monosodium salt assay (Dojindo Molecular Technologies, Inc). Cells (2000–3000 cells in each well) were seeded in 96-well tissue culture plates in medium (100 μL) and treated with serial dilution of DCN1 inhibitors for 3 days. At the end of incubation, WST-8 dye (20 μL) was added to each well and incubated for 1–3 h, then the absorbance was measured in a microplate reader (Molecular Devices) at 450 nm. Cell growth inhibition was evaluated as the ratio of the absorbance of the sample to that of the control. The values were inserted into Prism software, and the curves and the EC50 values were produced by Prism software.

[2] = test system: APAP-induced liver injury; assay: APAP-induced liver injury: H&E histology of liver; format: in vivo, mouse
Procedure: The in vivo studies were performed under animal protocols (PRO00007499) and (PRO00006638) approved by the Institutional Animal Care & Use Committee of the University of Michigan, in accordance with the recommendations in the Guide for the Care and Use of Laboratory Animals of the National Institutes of Health. C57BL/6 WT mice (~8 weeks, male, normal chow) were purchased from the Jackson Laboratory and randomly divided into eight groups (8–9 mice per group) treated (IP) as follows: phosphate-buffered saline vehicle once per day for 3 days (G1), APAP alone a single dose at 400 mg/kg on day 1 (G2), DI-1859 alone 25 mg/kg once per day for 3 days (G3), DI-1859 alone 50 mg/kg once per day for 3 days (G4), pretreatment (1 day before the APAP administration) with DI-1859 at 25 mg/kg once per day for 3 days followed with APAP at 400 mg/kg on day (G5), pretreatment (1 day before the APAP administration) with DI-1859 at 50 mg/kg once per day for 3 days followed with APAP at 400 mg/kg on day (G6), APAP a single dose at 400 mg/kg (3 h before the first DI-1859 administration) followed with DI-1859 at 25 mg/Kg once per day for 3 days (G7), and APAP a single dose at 400 mg/kg (3 h before the first DI-1859 administration) followed with DI-1859 at 50 mg/Kg once per day for 3 days (G8).
To induce acute liver injury, animals received PBS or APAP (400 mg/kg, sigma, A7085) through I.P. injection at 12 p.m. and were sacrificed 48 h afterward. To examine the protective effect of DI-1859 (groups 5 and 6), animals were I.P. injected with compound for 3 consecutive days (9 a.m. on each day, starting 1 day before APAP administration). To examine the restorative effect of DI-1859 (groups 7 and 8), animals were I.P. injected with compound 3 h after APAP administration followed by two additional treatments (9 a.m. on the next 2 days). Body weight and blood glucose level measurement, along with blood sample collection, were performed at 12 p.m. on each day.
Liver paraffin sections were stained with H&E.

T1 sequence (Q96GG9 whole entry): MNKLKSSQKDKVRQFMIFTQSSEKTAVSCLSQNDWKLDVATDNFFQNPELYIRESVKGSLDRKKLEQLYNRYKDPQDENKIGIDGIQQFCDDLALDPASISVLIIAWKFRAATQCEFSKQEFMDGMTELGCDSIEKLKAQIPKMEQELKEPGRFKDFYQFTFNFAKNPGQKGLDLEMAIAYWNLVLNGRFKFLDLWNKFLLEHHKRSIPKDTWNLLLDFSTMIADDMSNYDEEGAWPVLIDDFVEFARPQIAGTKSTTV

SMILES | concentration as low as which the thermal stability of cellular DCN1 protein is enhanced [1] | times more potent than DI-591 and DI-1548DD in enhancing the thermal stability of cellular DCN1 protein [1] | cytotoxicity / cell viability (four cancer cell lines) | liver tissue damage by the compound alone ([2]; 25 and 50 mg/kg qD for 3 days (G3, G4), ALT and histology) | effect on APAP-induced liver tissue damage (histology) ([2]; prevention setting, 25 mg/kg) | effect on APAP-induced liver tissue damage (histology) ([2]; prevention setting, 50 mg/kg) | effect on APAP-induced liver tissue damage (histology) ([2]; treatment setting, 25 and 50 mg/kg)
C=C(CN1CCOCC1)C(=O)NC[C@@H](NC(=O)[C@H](Cc1nc2ccc(C(C)C)cc2s1)NC(=O)CC)C1CCCCC1 [DI-1548] | ≤ 0.3 nM | > 1000 times | no cytotoxicity | – | – | – | –
C=C(CN(C)C)C(=O)NC[C@@H](NC(=O)[C@H](Cc1nc2ccc(C(C)C)cc2s1)NC(=O)CC)C1CCCCC1 [DI-1859] | – | – | – | caused no liver tissue damage | largely abolished tissue distortion and greatly reduced acetaminophen-induced tissue damage | near completely prevented APAP-induced liver tissue damage | significantly reduced the liver damage induced by APAP
